We go through 8 compounds from patent US20050107289A1, “Anti-microbial peptides and compositions” (priority 2001, published 2005).

Like-named read-outs stand apart in the source and are kept apart here. Non-standard residues stand in square brackets, D forms with d. Residues, ends and D or L forms follow the SMILES beside them.

Series [1] deals with S. aureus (MRSA) ATCC 33591. The series is classed as cell-based, Staphylococcus aureus. As to conditions: Table 9. In outline:
(§1)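 Broth microdilution (macrodilution in some cases) per NCCLS M7-A4; peptides 2-fold serially diluted in 5% DMSO/9% sucrose, ~400-2 μg/ml before dilution into broth; inoculum ~2.5×10^5 cfu/ml from overnight culture diluted 4000×.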

Another series concerns murine red blood cells. Put plainly: Red blood cell hemolysis. The series is classed as cell-based, mouse. In outline:
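Washed murine erythrocytes at 5% in saline with 10% FBS were exposed to serial peptide dilutions for 30 min at 37° C. Supernatant absorbance at 560 nm was read, with saline as 0% and 1% Triton X-100 as 100% hemolysis.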

Series [2] relates to vancomycin-resistant Enterococus faecalis (VRE)(ATCC 51575). The series is classed as cell-based, Enterococcus faecalis. Set-up: key to VRE (in vitro activity): peptide concentration in μg/ml (broth dilution assay). The conditions noted are these: Table 9. A digest of the protocol:
as §1

The mark [3] stands for this setting: media b: cation adjusted Meuller Hinton broth (MHBII).
The mark [4] stands for this setting: media c: Brain Heart Infusion (BHI).

As to `NCCCC[C@@H]1NC(=O)[C@@H](Cc2ccc(O)cc2)NC(=O)[C@H](CCC(N)=O)NC(=O)[C@@H](Cc2ccc(O)cc2)NC(=O)[C@H](CCCCN)NC(=O)[C@@H](CC(N)=O)NC(=O)[C@H](Cc2c[nH]c3ccccc23)NC(=O)[C@@H](CC(N)=O)NC1=O` [SEQ ID NO:94, [KYQYKNWN]] (cyclo(K[dN]W[dN]K[dY]Q[dY])), the “MRSA (in vitro activity)” value in series [1] (setting [3]) is listed as more than 200. Moreover, in the series with murine red blood cells, the “RBC Hemolysis (HD50)” value is listed as more than 200. Further, the “VRE (in vitro activity)” value in series [2] (setting [4]) is more than 200.
In the case of `CC(C)C[C@H]1NC(=O)[C@H](CCCCN)NC(=O)[C@@H](CCCNC(=N)N)NC(=O)[C@H](CCCCN)NC(=O)[C@@H](CC(C)C)NC(=O)[C@H](Cc2ccccc2)NC(=O)[C@@H](CC(C)C)NC(=O)[C@H](Cc2ccccc2)NC1=O` [SEQ ID NO:52, [KRKLFLFL]] (cyclo(K[dR]K[dL]F[dL]F[dL])), in series [1] (setting [3]), the “MRSA (in vitro activity)” value was 11. Besides, the “RBC Hemolysis (HD50)” value in the series on murine red blood cells is more than 180. Also, the “VRE (in vitro activity)” value in series [2] (setting [4]) was 22.
For `CC(C)C[C@@H]1NC(=O)[C@@H](Cc2c[nH]c3ccccc23)NC(=O)[C@H](CCCCN)NC(=O)[C@@H](Cc2c[nH]cn2)NC(=O)[C@H](CO)NC(=O)[C@@H](Cc2c[nH]cn2)NC(=O)[C@H](CCCCN)NC(=O)[C@@H](Cc2c[nH]c3ccccc23)NC1=O` [SEQ ID NO:88, [KHSHKWLW]] (cyclo([dW]L[dW]K[dH]S[dH]K)) the same measures were 6, 200 and 6.
On to `CC(C)C[C@H]1NC(=O)[C@H](Cc2c[nH]c3ccccc23)NC(=O)[C@@H](Cc2ccccc2)NC(=O)[C@H](CCCCN)NC(=O)[C@@H](Cc2ccccc2)NC(=O)[C@H](CCCCN)NC(=O)[C@@H](CC(C)C)NC(=O)[C@H](Cc2c[nH]c3ccccc23)NC1=O` [SEQ ID NO:100, [KFWLWLKF]] (cyclo(K[dF]W[dL]W[dL]K[dF])), for which, in series [1] (media a: anti-microbial media-3 (AM-3)), the “MRSA (in vitro activity)” value is given as 11. The “RBC Hemolysis (HD50)” value in the series with murine red blood cells is on record as more than 78. The “VRE (in vitro activity)” value in series [2] (media a: AM-3) came out at 10.
`CC(C)C[C@H]1NC(=O)[C@H](CCCCN)NC(=O)[C@@H](CC(C)C)NC(=O)[C@H](Cc2c[nH]c3ccccc23)NC(=O)[C@@H](CC(C)C)NC(=O)[C@H](Cc2c[nH]c3ccccc23)NC(=O)[C@@H](CC(C)C)NC(=O)[C@H](Cc2c[nH]c3ccccc23)NC1=O` [SEQ ID NO:41, [KLWLWLWL]] (cyclo(K[dL]W[dL]W[dL]W[dL])): the “MRSA (in vitro activity)” value in series [1] (setting [3]) came to 12. Moreover, the “RBC Hemolysis (HD50)” value in the series on murine red blood cells is listed as 30. Further, in series [2] (setting [4]), the “VRE (in vitro activity)” value came out at 25.
In the same order, the values of `C[C@H]1NC(=O)[C@H](CCC(N)=O)NC(=O)[C@@H](C)NC(=O)[C@H](CCCCN)NC(=O)[C@@H](C)NC(=O)[C@H](Cc2c[nH]c3ccccc23)NC(=O)[C@@H](C)NC(=O)[C@H](CCCCN)NC1=O` [SEQ ID NO:95, [KAQAKAWA]] (cyclo(K[dA]Q[dA]K[dA]W[dA])) are more than 200, more than 200 and more than 200.
For `CC(C)C[C@H]1NC(=O)[C@H](Cc2ccc(O)cc2)NC(=O)[C@@H](CCCCN)NC(=O)[C@H](CO)NC(=O)[C@@H](CO)NC(=O)[C@H](CCCCN)NC(=O)[C@@H](CC(C)C)NC(=O)[C@H](Cc2ccc(O)cc2)NC1=O` [SEQ ID NO:83, [KSSKYLYL]] (cyclo(K[dS]S[dK]Y[dL]Y[dL])) the same measures were 85, more than 340 and 170.
For `CC(C)C[C@H]1NC(=O)[C@H](C)NC(=O)[C@@H](CC(C)C)NC(=O)[C@H](Cc2ccccc2)NC(=O)[C@@H](CC(C)C)NC(=O)[C@H](CCCCN)NC(=O)[C@@H](Cc2c[nH]cn2)NC(=O)[C@H](CCCCN)NC1=O` [SEQ ID NO:47, [KHKLFLAL]] (cyclo(K[dH]K[dL]F[dL]A[dL])) the same measures were 3, more than 220 and 13.
